The values that follow come from US6544985B2, “Dihydro-benzo [b][1,4]diazepin-2-one derivatives” (Hoffman-La Roche Inc., priority 2001, dated 2003).

The structures appear in SMILES notation.

As usually defined, the melting point is the temperature, or range, at which the solid turns liquid. Take `CN(C)c1cc2c(cc1C(F)(F)F)NC(=O)CC(c1cccc(-n3ccnc3)c1)=N2` [Example 66, 7-Dimethylamino-4-(3-imidazol-1-yl-phenyl)-8-trifluoromethyl-1,3-dihydro-benzo[b][1,4]diazepin-2-one]: the melting point lay in the range of 203 to 205 °C.

`CN(C)c1cc2c(cc1Cl)NC(=O)CC(c1cccc(-n3cc(CO)cn3)c1)=N2` [Example 67, 8-Chloro-7-dimethylamino-4-[3-(4-hydroxymethyl-pyrazol-1-yl)-phenyl]-1,3-dihydro-benzo[b][1,4]diazepin-2-one] showed a melting point of 211 °C.

In turn, `CN(C)c1cc2c(cc1C(F)(F)F)NC(=O)CC(c1cccc(-n3cc(CO)cn3)c1)=N2` [Example 68, 7-Dimethylamino-4-[3-(4-hydroxymethyl-pyrazol-1-yl)-phenyl]-8-trifluoromethyl-1,3-dihydro-benzo[b][1,4]diazepin-2-one] came in with a melting point of 175 °C.

In the case of `Cc1noc(-c2cccc(C3=Nc4cc(N(C)C)c(C(F)(F)F)cc4NC(=O)C3)c2)c1CO` [Example 69, 7-Dimethylamino-4-[3-(4-hydroxymethyl-3-methyl-isoxazol-5-yl)-phenyl]-8-trifluoromethyl-1,3-dihydro-benzo[b][1,4]diazepin-2-one], the melting point fell in the range of 207 to 208 °C.

`CN(C)c1cc2c(cc1C(F)(F)F)NC(=O)CC(c1cccc(-c3nocc3CO)c1)=N2` [Example 70, 7-Dimethylamino-4-[3-(4-hydroxymethyl-isoxazol-3-yl)-phenyl]-8-trifluoromethyl-1,3-dihydro-benzo[b][1,4]diazepin-2-one]: the melting point was 217 to 219 °C.

Consider `CN(C)c1cc2c(cc1C(F)(F)F)NC(=O)CC(c1cccc(-c3c(CO)cnn3C)c1)=N2` [Example 72, 7-Dimethylamino-4-[3-(4-hydroxymethyl-2-methyl-2H-pyrazol-3-yl)-phenyl]-8-trifluoromethyl-1,3-dihydro-benzo[b][1,4]diazepin-2-one], for which the melting point is 243 to 244 °C.

As to `CN(C)c1cc2c(cc1Cl)NC(=O)CC(c1cccc(-n3cncn3)c1)=N2` [Example 73, 8-Chloro-7-dimethylamino-4-(3-[1,2,4]triazol-1-yl-phenyl)-1,3-dihydro-benzo[b][1,4]diazepin-2-one], the melting point was in the range of 239 to 241 °C.

`CN(C)c1cc2c(cc1C(F)(F)F)NC(=O)CC(c1cccc(-n3cncn3)c1)=N2` [Example 74, 7-Dimethylamino-4-(3-[1,2,4]triazol-1-yl-phenyl)-8-trifluoromethyl-1,3-dihydro-benzo[b][1,4]diazepin-2-one]: the melting point is 228 to 230 °C.

The molecule `CN(C)c1cc2c(cc1C(F)(F)F)NC(=O)CC(c1cccc(C#N)c1)=N2` [Example 75, 3-(8-Dimethylamino-4-oxo-7-trifluoromethyl-4,5-dihydro-3H-benzo[b][1,4]diazepin-2-yl)-benzonitrile] had a melting point of 224 to 227 °C.

On to `CN(C)c1cc2c(cc1C(F)(F)F)NC(=O)CC(c1cccc(-n3nncc3CNCC(F)(F)F)c1)=N2` [Example 76, 7-Dimethylamino-4-(3-{5-[(2,2,2-trifluoro-ethylamino)methyl]-[1,2,3]triazol-1-yl}-phenyl)8-trifluoromethyl-1,3-dihydro-benzo[b][1,4]diazepin-2-one], for which the melting point is 168 to 170 °C.

Molecule `CN(CC1CC1)c1cc2c(cc1C(F)(F)F)NC(=O)CC(c1cccc(-n3nncc3CO)c1)=N2` [Example 77, 7-(Cyclopropylmethyl-methyl-amino)-4-[3-(5-hydroxymethyl-[1,2,3]triazol-1-yl)-phenyl]-8-trifluoromethyl-1,3-dihydro-benzo[b][1,4]diazepin-2-one] registered a melting point of 212 °C.

`CN(C)c1cc2c(cc1C(F)(F)F)NC(=O)CC(c1cccc(-n3cc(CNC4CC4)cn3)c1)=N2` [Example 79, 4-[3-(4-Cyclopropylaminomethyl-pyrazol-1-yl)-phenyl]-7-dimethylamino-8-trifluoromethyl-1,3-dihydro-benzo[b][1,4]diazepin-2-one] gave a melting point of 135 °C.

For `CN(CC1CC1)c1cc2c(cc1C(F)(F)F)NC(=O)CC(c1cccc(-n3nncc3CNC3CC3)c1)=N2` [Example 80, 4-[3-(5-Cyclopropylaminomethyl-[1,2,3]triazol-1-yl)-phenyl]-7-(cyclopropylmethyl-methyl-amino)-8-trifluoromethyl-1,3-dihydro-benzo[b][1,4]diazepin-2-one], the melting point lay in the range of 35 to 46 °C.

`CN(C)c1cc2c(cc1C(F)(F)F)NC(=O)CC(c1cccc(-c3ccnn3CCO)c1)=N2` [Example 81, 7-Dimethylamino-4-{3-[2-(2-hydroxy-ethyl)-2H-pyrazol-3-yl]-phenyl}-8-trifluoromethyl-1,3-dihydro-benzo[b][1,4]diazepin-2-one] had a melting point of 138 °C.

In turn, `CN(c1cc2c(cc1C(F)(F)F)NC(=O)CC(c1ccnc(C#N)c1)=N2)C1CC1` [Example 83, 4-[8-(Cyclopropyl-methyl-amino)-4-oxo-7-trifluoromethyl-4,5-dihydro-3H-benzo[b][1,4]diazepin-2-yl]-pyridine-2-carbonitrile] registered a melting point of 200 to 205 °C.

As for `CN(C)c1cc2c(cc1C(F)(F)F)NC(=O)CC(c1cccc(-n3nncc3CCO)c1)=N2` [Example 85, 7-Dimethylamino-4-{3-[5-(2-hydroxy-ethyl)-[1,2,3]triazol-1-yl]-phenyl}-8-trifluoromethyl-1,3-dihydro-benzo[b][1,4]diazepin-2-one], the melting point was 172 to 175 °C.

`CN(C)c1cc2c(cc1C(F)(F)F)NC(=O)CC(c1cccc(-n3nccc3CO)c1)=N2` [Example 86, 7-Dimethylamino-4-[3-(5-hydroxymethyl-pyrazol-1-yl)-phenyl]-8-trifluoromethyl-1,3-dihydro-benzo[b][1,4]diazepin-2-one] returned a melting point of 228 to 229 °C.

For `CN(C)c1cc2c(cc1C(F)(F)F)NC(=O)CC(c1cccc(-n3ccnn3)c1)=N2` [Example 87, 7-Dimethylamino-4-(3-[1,2,3]triazol-1-yl-phenyl)-8-trifluoromethyl-1,3-dihydro-benzo[b][1,4]diazepin-2-one], the melting point is 210 to 212 °C.

In turn, `Cc1cc2c(cc1N(C)C)N=C(c1cccc(C#N)c1)CC(=O)N2` [Example 89, 3-(8-Dimethylamino-7-methyl-4-oxo-4,5-dihydro-3H-benzo[b][1,4]diazepin-2-yl)-benzonitrile] showed a melting point of 257 °C.

As to `Cc1cc2c(cc1N(C)C)N=C(c1cccc(-n3nncc3CO)c1)CC(=O)N2` [Example 90, 7-Dimethylamino-4-[3-(5-hydroxymethyl-[1,2,3]triazol-1-yl)-phenyl]-8-methyl-1,3-dihydro-benzo[b][1,4]diazepin-2-one], the melting point was 190 °C.

`CN(C)c1cc2c(cc1C#N)NC(=O)CC(c1cccc(C#N)c1)=N2` [Example 91, 2-(3-Cyano-phenyl)-8-dimethylamino-4-oxo-4,5-dihydro-3H-benzo[b][1,4]diazepine-7-carbonitrile]: the melting point stood at 251 °C.

Molecule `CCCN(C)c1cc2c(cc1C)NC(=O)CC(c1cccc(-n3nncc3CO)c1)=N2` [Example 93, 4-[3-(5-Hydroxymethyl-[1,2,3]triazol-1-yl)-phenyl]-8-methyl-7-(methyl-propyl-amino)-1,3-dihydro-benzo[b][1,4]diazepin-2-one] yielded a melting point of 186 °C.

`CCN(C)c1cc2c(cc1C)NC(=O)CC(c1cccc(-n3nncc3CO)c1)=N2` [Example 94, 7-(Ethyl-methyl-amino)-4-[3-(5-hydroxymethyl-[1,2,3]triazol-1-yl)-phenyl]-8-methyl-1,3-dihydro-benzo[b][1,4]diazepin-2-one] came in with a melting point of 207 °C.

For `CN(C)c1cc2c(cc1C#N)NC(=O)CC(c1cccc(-n3nncc3CO)c1)=N2` [Example 95, 8-Dimethylamino-2-[3-(5-hydroxymethyl-[1,2,3]triazol-1-yl)-phenyl]-4-oxo-4,5-dihydro-3H-benzo[b][1,4]diazepine-7-carbonitrile], the melting point amounted to 234 °C.

`CC(C)N(C)c1cc2c(cc1Cl)NC(=O)CC(c1cccc(-n3nncc3CO)c1)=N2` [Example 96, 8-Chloro-4-[3-(5-hydroxymethyl-[1,2,3]triazol-1-yl)-phenyl]-7-(isopropyl-methyl-amino)-1,3-dihydro-benzo[b][1,4]diazepin-2-one] gave a melting point of 207 °C.

Consider `CCCN(C)c1cc2c(cc1C)NC(=O)CC(c1cccc(-c3cc(C)no3)c1)=N2` [Example 97, 8-Methyl-4-[3-(3-methyl-isoxazol-5-yl)-phenyl]-7-(methyl-propyl-amino)-1,3-dihydro-benzo[b][1,4]diazepin-2-one], for which the melting point turned out to be 194 °C.

`Cc1cc(-c2cccc(C3=Nc4cc(N(C)C)c(C#N)cc4NC(=O)C3)c2)on1` [Example 98, 8-Dimethylamino-2-[3-(3-methyl-isoxazol-5-yl)-phenyl]-4-oxo-4,5-dihydro-3H-benzo[b][1,4]diazepine-7-carbonitrile] had a melting point of 248 °C.

Take `Cc1cc(-c2cccc(C3=Nc4cc(N(C)C)c(C)cc4NC(=O)C3)c2)on1` [Example 100, 7-Dimethylamino-8-methyl-4-[3-(3-methyl-isoxazol-5-yl)-phenyl]-1,3-dihydro-benzo[b][1,4]diazepin-2-one]: the melting point came out at 204 °C.

In the case of `Cc1cc(-c2cccc(C3=Nc4cc(N(C)CC(C)C)c(Cl)cc4NC(=O)C3)c2)on1` [Example 102, 8-Chloro-7-(isobutyl-methyl-amino)-4-[3-(3-methyl-isoxazol-5-yl)-phenyl]-1,3-dihydro-benzo[b][1,4]diazepin-2-one], the melting point was found to be 194 °C.

Turning to `N#Cc1cc2c(cc1N1CCCC1)N=C(c1cccc(-n3nncc3CO)c1)CC(=O)N2` [Example 103, 2-[3-(5-Hydroxymethyl-[1,2,3]triazol-1-yl)-phenyl]-4-oxo-8-pyrrolidin-1-yl-4,5-dihydro-3H-benzo[b][1,4]diazepine-7-carbonitrile], the melting point is 241 °C.

For the molecule `Cc1cc(-c2cccc(C3=Nc4cc(N5CCCC5)c(C#N)cc4NC(=O)C3)c2)on1` [Example 104, 2-[3-(3-Methyl-isoxazol-5-yl)-phenyl]-4-oxo-8-pyrrolidin-1-yl-4,5-dihydro-3H-benzo[b][1,4]diazepine-7-carbonitrile], the melting point amounted to 267 °C.
